# Measured values as given in PubChem BioAssay (NCI).
#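 In this assay, cells in 96-well plates receive the compound at five concentrations for 48 hours. Endpoints are linearly interpolated between the surrounding concentrations. TGI marks complete inhibition of growth.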
# Columns and labels:
# Assay in all cases: NCI-60 cell line screen, 48 h
# U251 CNS = tested on: U251 CNS
# OVCAR-3 ovarian = tested on: OVCAR-3 ovarian
# SF-539 CNS = tested on: SF-539 CNS
# COLO 205 colon = tested on: COLO 205 colon
# SK-MEL-5 melanoma = tested on: SK-MEL-5 melanoma
# HOP-92 NSCLC = tested on: HOP-92 NSCLC
# MCF7 breast = tested on: MCF7 breast
# BT-549 breast = tested on: BT-549 breast
# MOLT-4 leukemia = tested on: MOLT-4 leukemia
# UACC-62 melanoma = tested on: UACC-62 melanoma
# MALME-3M melanoma = tested on: MALME-3M melanoma
Compound,TGI (U251 CNS) [µM],TGI (OVCAR-3 ovarian) [µM],TGI (SF-539 CNS) [µM],TGI (COLO 205 colon) [µM],TGI (SK-MEL-5 melanoma) [µM],TGI (HOP-92 NSCLC) [µM],TGI (MCF7 breast) [µM],TGI (BT-549 breast) [µM],TGI (MOLT-4 leukemia) [µM],TGI (UACC-62 melanoma) [µM],TGI (MALME-3M melanoma) [µM]
CCCCCCCCC[C@@H]1C[C@@H]2CCC3C(C(=O)OCCCCNC(=O)OCc4ccccc4)=C(C)NC(=N1)N32 (stereo partly drawn),10.3,14.9,14.4,2.97,2.93,7.08,4.72,12.6,6.41,13.7,–
CC(C(O)c1ccccc1)[N+](=O)[O-] (stereo not drawn),38.4,17.3,49.1,80,39.1,–,40.1,–,4.88,37.2,48.4
CCCCCCCCCCOC1C(C(C)OCCCN(C)C)OC2OC3(CCCCC3)OC21 (stereo not drawn),28.4,29.1,–,14.6,29.5,16.3,42.8,–,30.6,26.2,29.5
CCN(CC)CCNC(=O)c1cc2cc(NC(=O)c3cc4cc(NC(=O)c5cc6cc([N+](=O)[O-])ccc6[nH]5)ccc4[nH]3)ccc2[nH]1,> 100,> 100,–,> 100,> 100,> 100,–,> 100,> 100,> 100,> 100
O=C(O)C1(CC(CCCN2CCCCC2)c2ccccc2)CCCC1 (stereo not drawn),> 100,> 100,> 100,> 100,> 100,> 100,> 100,–,> 100,> 100,> 100
CCC(=O)n1c(=O)n(-c2ccc([N+](=O)[O-])cc2)c(=O)n1C(=O)CC,> 100,> 100,–,> 100,> 100,–,> 100,> 100,> 100,> 100,–
CN1CCN(c2ccc3nc(-c4ccc5nc(-c6ccc(N(C)CCCl)cc6)[nH]c5c4)[nH]c3c2)CC1,1.09,–,0.462,0.341,0.517,0.989,0.56,–,0.357,1.05,0.41
COc1ccc(CCN2CCOCC2)cc1,> 100,> 100,> 100,> 100,> 100,> 100,> 100,–,> 100,> 100,> 100
CC(=N\N=C\c1ccccn1)/C(C)=N/N=C/c1ccccn1,> 100,> 100,> 100,> 100,> 100,> 100,> 100,> 100,–,–,> 100
OC1NC2CC3NC(O)C(O)NC3CC2NC1O (stereo not drawn),> 100,> 100,> 100,> 100,> 100,> 100,> 100,–,> 100,> 100,> 100
O=S(=O)(Nc1nc(-c2cc(O)c(O)c(O)c2)cs1)c1ccc(Cl)cc1Cl,37.3,37.6,71.5,50.2,34.2,> 100,36.1,–,52.7,> 100,> 100
O=C1O[C@H](COC(=O)c2ccccc2)[C@@H](OC(=O)c2ccccc2)C=C1OC(=O)c1ccccc1,32.3,35.9,32.5,38.3,36.2,42.8,91.3,43.7,56,49.6,–
CC(Nc1cc(=O)n(C)c(=O)[nH]1)c1ccccc1 (stereo not drawn),> 100,> 100,> 100,> 100,> 100,> 100,> 100,> 100,> 100,> 100,–
CCC(C)N1CN(c2ccccc2)C2(CCN(CCCC(=O)c3ccc(F)cc3)CC2)C1=O (stereo not drawn),16.9,24.8,21,0.348,9.61,–,11.5,26,23.2,32.9,27.8
S=C1NC2=C(COC/C2=C\c2ccccc2Cl)C(c2ccccc2Cl)N1 (stereo not drawn),> 100,> 100,> 100,33.5,34.6,> 100,63.1,> 100,44.5,> 100,–
COC(=O)C(Cc1ccccc1)NC(=O)C(CCCN=C(N)N)NC(=O)OCc1ccccc1 (stereo not drawn),> 100,> 100,–,> 100,> 100,> 100,> 100,> 100,> 100,> 100,> 100
CC(=O)C1C(=O)C(=O)N(c2ccc([N+](=O)[O-])cc2Cl)C1=O (stereo not drawn),> 100,> 100,> 100,> 100,> 100,> 100,> 100,> 100,> 100,> 100,–
CN(c1ccccc1Cl)S(=O)(=O)c1ccccc1,> 100,> 100,> 100,> 100,> 100,–,> 100,> 100,> 100,> 100,> 100
CN(C)Cc1cc(C(=O)/C=C/c2c(F)cccc2Cl)cc(CN(C)C)c1O,28.9,24.6,–,24.8,29.2,20.3,20.2,21.8,66.1,26.1,25.7
O=C(OCc1c(-c2ccccc2)nn(-c2ccccc2)c1COC(=O)Oc1ccccc1)Oc1ccccc1,> 100,> 100,> 100,> 100,> 100,> 100,> 100,–,> 100,> 100,> 100
